# In PubChem BioAssay (NCI):
#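 Test compounds were applied to cells in 96-well plates for 48 hours at 5 doses. TGI is the concentration that stops growth completely.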
# Test system: SF-539 CNS
# Test: inhibition of tumour cell growth, NCI panel, 48 h
row,SMILES,TGI [µM]
1,CCC(=O)Nc1cccc(NC(=O)c2c(Cl)c(Cl)c(Cl)c(Cl)c2-c2nc3ccccc3[nH]2)c1,> 100
2,CCOC(=O)CCC(C(=O)OCC)n1nc2ccc(Nc3c(C)[n+]([O-])c4ccc(Cl)cc4[n+]3[O-])cc2n1 (stereo unspecified),43.9
3,C(=N\c1cc2cc(Sc3ccccc3)ccc2[nH]1)/c1ccccc1,> 12.5
4,CCOc1cc(NC(C)=O)ccc1C(=O)NNS(=O)(=O)c1ccc(Cl)cc1Cl,> 50
5,CN(C)c1ccc(C2C(Cl)C(=O)N2NC(=O)c2c(Cl)c(Cl)c(Cl)c(Cl)c2-c2nc3ccccc3[nH]2)cc1 (stereo unspecified),57.4

# Test system: SK-MEL-2 melanoma
# Test: inhibition of tumour cell growth, NCI panel, 48 h
row,SMILES,TGI [µM]
1,CCC(=O)Nc1cccc(NC(=O)c2c(Cl)c(Cl)c(Cl)c(Cl)c2-c2nc3ccccc3[nH]2)c1,> 100
2,CCOC(=O)CCC(C(=O)OCC)n1nc2ccc(Nc3c(C)[n+]([O-])c4ccc(Cl)cc4[n+]3[O-])cc2n1 (stereo unspecified),61
3,CCOc1cc(NC(C)=O)ccc1C(=O)NNS(=O)(=O)c1ccc(Cl)cc1Cl,> 50
4,CN(C)c1ccc(C2C(Cl)C(=O)N2NC(=O)c2c(Cl)c(Cl)c(Cl)c(Cl)c2-c2nc3ccccc3[nH]2)cc1 (stereo unspecified),86.7

# Test system: SK-MEL-28 melanoma
# Test: inhibition of tumour cell growth, NCI panel, 48 h
row,SMILES,TGI [µM]
1,CCC(=O)Nc1cccc(NC(=O)c2c(Cl)c(Cl)c(Cl)c(Cl)c2-c2nc3ccccc3[nH]2)c1,> 100
2,C(=N\c1cc2cc(Sc3ccccc3)ccc2[nH]1)/c1ccccc1,> 12.5
3,CCOc1cc(NC(C)=O)ccc1C(=O)NNS(=O)(=O)c1ccc(Cl)cc1Cl,> 50
4,CN(C)c1ccc(C2C(Cl)C(=O)N2NC(=O)c2c(Cl)c(Cl)c(Cl)c(Cl)c2-c2nc3ccccc3[nH]2)cc1 (stereo unspecified),> 100

# Test system: SK-MEL-5 melanoma
# Test: inhibition of tumour cell growth, NCI panel, 48 h
row,SMILES,TGI [µM]
1,CCC(=O)Nc1cccc(NC(=O)c2c(Cl)c(Cl)c(Cl)c(Cl)c2-c2nc3ccccc3[nH]2)c1,> 100
2,CCOC(=O)CCC(C(=O)OCC)n1nc2ccc(Nc3c(C)[n+]([O-])c4ccc(Cl)cc4[n+]3[O-])cc2n1 (stereo unspecified),76.2
3,C(=N\c1cc2cc(Sc3ccccc3)ccc2[nH]1)/c1ccccc1,> 12.5
4,CCOc1cc(NC(C)=O)ccc1C(=O)NNS(=O)(=O)c1ccc(Cl)cc1Cl,> 50
5,CN(C)c1ccc(C2C(Cl)C(=O)N2NC(=O)c2c(Cl)c(Cl)c(Cl)c(Cl)c2-c2nc3ccccc3[nH]2)cc1 (stereo unspecified),48.6

# Test system: SK-OV-3 ovarian
# Test: inhibition of tumour cell growth, NCI panel, 48 h
row,SMILES,TGI [µM]
1,CCOC(=O)CCC(C(=O)OCC)n1nc2ccc(Nc3c(C)[n+]([O-])c4ccc(Cl)cc4[n+]3[O-])cc2n1 (stereo unspecified),46.8
2,CCOc1cc(NC(C)=O)ccc1C(=O)NNS(=O)(=O)c1ccc(Cl)cc1Cl,> 50
3,CN(C)c1ccc(C2C(Cl)C(=O)N2NC(=O)c2c(Cl)c(Cl)c(Cl)c(Cl)c2-c2nc3ccccc3[nH]2)cc1 (stereo unspecified),> 100

# Test system: SN12C renal
# Test: inhibition of tumour cell growth, NCI panel, 48 h
row,SMILES,TGI [µM]
1,CCC(=O)Nc1cccc(NC(=O)c2c(Cl)c(Cl)c(Cl)c(Cl)c2-c2nc3ccccc3[nH]2)c1,> 100
2,CCOC(=O)CCC(C(=O)OCC)n1nc2ccc(Nc3c(C)[n+]([O-])c4ccc(Cl)cc4[n+]3[O-])cc2n1 (stereo unspecified),48.4
3,C(=N\c1cc2cc(Sc3ccccc3)ccc2[nH]1)/c1ccccc1,> 12.5
4,CCOc1cc(NC(C)=O)ccc1C(=O)NNS(=O)(=O)c1ccc(Cl)cc1Cl,> 50
5,CN(C)c1ccc(C2C(Cl)C(=O)N2NC(=O)c2c(Cl)c(Cl)c(Cl)c(Cl)c2-c2nc3ccccc3[nH]2)cc1 (stereo unspecified),38.4

# Test system: SNB-19 CNS
# Test: inhibition of tumour cell growth, NCI panel, 48 h
row,SMILES,TGI [µM]
1,CCC(=O)Nc1cccc(NC(=O)c2c(Cl)c(Cl)c(Cl)c(Cl)c2-c2nc3ccccc3[nH]2)c1,> 100
2,CCOC(=O)CCC(C(=O)OCC)n1nc2ccc(Nc3c(C)[n+]([O-])c4ccc(Cl)cc4[n+]3[O-])cc2n1 (stereo unspecified),95.9
3,C(=N\c1cc2cc(Sc3ccccc3)ccc2[nH]1)/c1ccccc1,> 12.5
4,CCOc1cc(NC(C)=O)ccc1C(=O)NNS(=O)(=O)c1ccc(Cl)cc1Cl,> 50
5,CN(C)c1ccc(C2C(Cl)C(=O)N2NC(=O)c2c(Cl)c(Cl)c(Cl)c(Cl)c2-c2nc3ccccc3[nH]2)cc1 (stereo unspecified),94.3

# Test system: SNB-75 CNS
# Test: inhibition of tumour cell growth, NCI panel, 48 h
row,SMILES,TGI [µM]
1,CCC(=O)Nc1cccc(NC(=O)c2c(Cl)c(Cl)c(Cl)c(Cl)c2-c2nc3ccccc3[nH]2)c1,> 100
2,C(=N\c1cc2cc(Sc3ccccc3)ccc2[nH]1)/c1ccccc1,> 12.5
3,CCOc1cc(NC(C)=O)ccc1C(=O)NNS(=O)(=O)c1ccc(Cl)cc1Cl,> 50
4,CN(C)c1ccc(C2C(Cl)C(=O)N2NC(=O)c2c(Cl)c(Cl)c(Cl)c(Cl)c2-c2nc3ccccc3[nH]2)cc1 (stereo unspecified),44.3

# Test system: SR leukemia
# Test: inhibition of tumour cell growth, NCI panel, 48 h
row,SMILES,TGI [µM]
1,CCC(=O)Nc1cccc(NC(=O)c2c(Cl)c(Cl)c(Cl)c(Cl)c2-c2nc3ccccc3[nH]2)c1,> 100
2,CCOC(=O)CCC(C(=O)OCC)n1nc2ccc(Nc3c(C)[n+]([O-])c4ccc(Cl)cc4[n+]3[O-])cc2n1 (stereo unspecified),> 100
3,C(=N\c1cc2cc(Sc3ccccc3)ccc2[nH]1)/c1ccccc1,> 12.5
4,CCOc1cc(NC(C)=O)ccc1C(=O)NNS(=O)(=O)c1ccc(Cl)cc1Cl,> 50
5,CN(C)c1ccc(C2C(Cl)C(=O)N2NC(=O)c2c(Cl)c(Cl)c(Cl)c(Cl)c2-c2nc3ccccc3[nH]2)cc1 (stereo unspecified),> 100

# Test system: SW-620 colon
# Test: inhibition of tumour cell growth, NCI panel, 48 h
row,SMILES,TGI [µM]
1,CCC(=O)Nc1cccc(NC(=O)c2c(Cl)c(Cl)c(Cl)c(Cl)c2-c2nc3ccccc3[nH]2)c1,> 100
2,CCOC(=O)CCC(C(=O)OCC)n1nc2ccc(Nc3c(C)[n+]([O-])c4ccc(Cl)cc4[n+]3[O-])cc2n1 (stereo unspecified),> 100
3,C(=N\c1cc2cc(Sc3ccccc3)ccc2[nH]1)/c1ccccc1,> 12.5
4,CCOc1cc(NC(C)=O)ccc1C(=O)NNS(=O)(=O)c1ccc(Cl)cc1Cl,> 50
5,CN(C)c1ccc(C2C(Cl)C(=O)N2NC(=O)c2c(Cl)c(Cl)c(Cl)c(Cl)c2-c2nc3ccccc3[nH]2)cc1 (stereo unspecified),> 100

# Test system: T-47D breast
# Test: inhibition of tumour cell growth, NCI panel, 48 h
row,SMILES,TGI [µM]
1,CCC(=O)Nc1cccc(NC(=O)c2c(Cl)c(Cl)c(Cl)c(Cl)c2-c2nc3ccccc3[nH]2)c1,> 100
2,CCOC(=O)CCC(C(=O)OCC)n1nc2ccc(Nc3c(C)[n+]([O-])c4ccc(Cl)cc4[n+]3[O-])cc2n1 (stereo unspecified),55.2
3,C(=N\c1cc2cc(Sc3ccccc3)ccc2[nH]1)/c1ccccc1,> 12.5
4,CCOc1cc(NC(C)=O)ccc1C(=O)NNS(=O)(=O)c1ccc(Cl)cc1Cl,> 50
5,CN(C)c1ccc(C2C(Cl)C(=O)N2NC(=O)c2c(Cl)c(Cl)c(Cl)c(Cl)c2-c2nc3ccccc3[nH]2)cc1 (stereo unspecified),25.2

# Test system: TK-10 renal
# Test: inhibition of tumour cell growth, NCI panel, 48 h
row,SMILES,TGI [µM]
1,CCOC(=O)CCC(C(=O)OCC)n1nc2ccc(Nc3c(C)[n+]([O-])c4ccc(Cl)cc4[n+]3[O-])cc2n1 (stereo unspecified),> 100

# Test system: U251 CNS
# Test: inhibition of tumour cell growth, NCI panel, 48 h
row,SMILES,TGI [µM]
1,CCOC(=O)CCC(C(=O)OCC)n1nc2ccc(Nc3c(C)[n+]([O-])c4ccc(Cl)cc4[n+]3[O-])cc2n1 (stereo unspecified),39.1

# Test system: UACC-257 melanoma
# Test: inhibition of tumour cell growth, NCI panel, 48 h
row,SMILES,TGI [µM]
1,CCC(=O)Nc1cccc(NC(=O)c2c(Cl)c(Cl)c(Cl)c(Cl)c2-c2nc3ccccc3[nH]2)c1,> 100
2,CCOC(=O)CCC(C(=O)OCC)n1nc2ccc(Nc3c(C)[n+]([O-])c4ccc(Cl)cc4[n+]3[O-])cc2n1 (stereo unspecified),70.8
3,C(=N\c1cc2cc(Sc3ccccc3)ccc2[nH]1)/c1ccccc1,> 12.5
4,CCOc1cc(NC(C)=O)ccc1C(=O)NNS(=O)(=O)c1ccc(Cl)cc1Cl,> 50
5,CN(C)c1ccc(C2C(Cl)C(=O)N2NC(=O)c2c(Cl)c(Cl)c(Cl)c(Cl)c2-c2nc3ccccc3[nH]2)cc1 (stereo unspecified),44.6

# Test system: UACC-62 melanoma
# Test: inhibition of tumour cell growth, NCI panel, 48 h
row,SMILES,TGI [µM]
1,CCC(=O)Nc1cccc(NC(=O)c2c(Cl)c(Cl)c(Cl)c(Cl)c2-c2nc3ccccc3[nH]2)c1,> 100
2,CCOC(=O)CCC(C(=O)OCC)n1nc2ccc(Nc3c(C)[n+]([O-])c4ccc(Cl)cc4[n+]3[O-])cc2n1 (stereo unspecified),> 100
3,C(=N\c1cc2cc(Sc3ccccc3)ccc2[nH]1)/c1ccccc1,> 12.5
4,CCOc1cc(NC(C)=O)ccc1C(=O)NNS(=O)(=O)c1ccc(Cl)cc1Cl,> 50
5,CN(C)c1ccc(C2C(Cl)C(=O)N2NC(=O)c2c(Cl)c(Cl)c(Cl)c(Cl)c2-c2nc3ccccc3[nH]2)cc1 (stereo unspecified),37.5

# Test system: UO-31 renal
# Test: inhibition of tumour cell growth, NCI panel, 48 h
row,SMILES,TGI [µM]
1,CCC(=O)Nc1cccc(NC(=O)c2c(Cl)c(Cl)c(Cl)c(Cl)c2-c2nc3ccccc3[nH]2)c1,> 100
2,CCOC(=O)CCC(C(=O)OCC)n1nc2ccc(Nc3c(C)[n+]([O-])c4ccc(Cl)cc4[n+]3[O-])cc2n1 (stereo unspecified),35.6
3,CCOc1cc(NC(C)=O)ccc1C(=O)NNS(=O)(=O)c1ccc(Cl)cc1Cl,> 50
4,CN(C)c1ccc(C2C(Cl)C(=O)N2NC(=O)c2c(Cl)c(Cl)c(Cl)c(Cl)c2-c2nc3ccccc3[nH]2)cc1 (stereo unspecified),78.5
